Test results reported in patent US9340575B2, “Agonists and antagonists of the urotensinergic system” (INSTITUT NATIONAL DE LA RECHERCHE SCIENTIFIQUE, priority 2011, dated 2016).
Values joined by “and” are separate entries in the source; they are usually repeats but may differ in a detail not shown here. Equal values may be shown once. “Also recorded” adds a separate entry of the source.

Key:
rat isolated aorta = experiment: Reversal of hUII-induced contractile tone in rat isolated aorta; type: cell-based; settings: tone established with 4 nM hUII (EC80)
Protocol: (§1) Male rats (Sprague-Dawley, 250-300 g) were killed by CO2 asphyxiation. The thoracic aorta was then cleared of surrounding tissues and excised from aortic arch to the diaphragm. From each vessel, conjunctive tissues were removed and the clean vessel was cut into 4 mm rings. The endothelium was removed by gently rubbing the vessel's intimal surface. All preparations were placed in 5 ml organ baths filled with oxygenated normal Krebs-Henselheit solution. Contractile responses to 40 mM KCl were used as control at the beginning and at the end of each experiment. Agonistic activity was measured by increasing the concentration of the peptide in the organ chamber (3×10^−11-3×10^−6 M). For antagonist behaviour, thoracic aortic rings were first exposed to URP derivative over a period of 15 min, and then cumulative concentration-response curves to hUII, URP or ET-1 (10^−10-3×10^−6 M) were constructed. The amplitude of the contraction induced by each concentration of peptide was expressed as a percentage of the KCl-induced contraction. Finally, the ability of the antagonist to reverse the hUII-induced contraction was also evaluated. Vessels were pre-contracted with 4 nM hUII (pre-determined EC80) and after the maximum contraction was attained, contractile tone was reversed by adding increasing log unit concentrations of URP derivative.

rat thoracic aorta rings [1] = experiment: Effect on ET-1-induced contraction of rat aortic ring; type: cell-based; settings: [Bip^4]URP 10^−6M
Protocol: as §1

rat thoracic aorta rings [2] = type: cell-based; settings: percentage of KCl (40 mM) contraction; at 10^−5.5M
anaesthetized rats = experiment: Hemodynamic assessment (arterial blood pressure) in anaesthetized rats; type: in vivo, rat; settings: for Intrinsic effect on blood pressure: anaesthetized rats
Protocol: Male Sprague-Dawley rats, weighing 350-400 g, were anaesthetized by isoflurane inhalation delivered in 100% oxygen (1 l/min) from an Ohmeda Tec 4 anaesthetic vaporizer (Somatechnology, Inc., Bloomfield, Conn., USA). Anaesthesia was maintained by mask inhalation of isoflurane vaporized at concentrations of up to 3% in the induction phase, at 1.5% during acute surgical procedures and at 0.8-1.0% during experimental observations. […]. […] A period of stabilisation of 30 min was observed and the following experimental protocols were then performed and arterial blood pressure was evaluated. During isoflurane inhalation, no breathing complications or changes in blood pressure were observed. […].
In a preliminary study, individual rats received a single i.v. injection of hUII ranging from 1 to 30 nmol/kg. A dose-response curve, reflecting the effect of hUII on the change in blood pressure, was then determined.
In this set of experiments, five groups of rats were used. […] […]. Hemodynamic changes were continuously captured by the pressure probe over a period of 1 h. The maximum rise and the maximum drop in blood pressure was determined and analyzed using the PowerLab software (ADInstruments, Colorado Springs, Colo., USA).
In the control group, the rats received two doses of hUII (10 nmol/kg) with a 30 min interval between the first and second injection.

rat thoracic aorta rings [3] = experiment: Antagonism of UII- or URP-induced contraction of rat aortic ring; type: cell-based
Protocol: as §1, with “derivative. […] Binding and functional experiments were performed at least in triplicate and data, expressed as mean±S.E.M, were analyzed using the Prism software (Graph Pad Software, San Diego, Calif.). In all experiments, n represents the total number of animals studied or individual assays performed. The EC50, pEC50, pIC50 values as well as the Emax value were determined from the concentration-response curves using a sigmoidal dose-response fit with variable slope. Non-competitive antagonist affinities (pKb) were determined using the method of Gaddum where equiactive concentrations of agonist, in the absence or presence of URP derivative, were compared in a linear regression. The resulting slope was used to calculate the equilibrium constant Kb using the following equation: Kb=[B]/(slope−1); where [B] is the antagonist concentration. The slope is calculated from the double reciprocal plot of equiactive concentrations of agonist in the presence and absence of antagonist.” for “derivative.”

[4] = 1000 nmol/kg bolus, 30 min before hUII 10 nmol/kg

pIC50 for reversal of contractile tone (rat isolated aorta): 7.72±0.15
Compound: CC(C)[C@H](NC(=O)[C@@H]1CSSC[C@H](NC(=O)[C@H](C)N)C(=O)N[C@@H](Cc2ccccc2)C(=O)N[C@@H](Cc2ccc(-c3ccccc3)cc2)C(=O)N[C@@H](CCCCN)C(=O)N[C@@H](Cc2ccc(O)cc2)C(=O)N1)C(=O)O [[Bip^4]URP, H-Ala-Cys-Phe-Bip-Lys-Tyr-Cys-Val-OH]
Suppression of contractile tone (rat isolated aorta): 92%
Effect on ET-1-induced contraction (in words) (rat thoracic aorta rings [1]): not able to alter the concentration-response curves; also recorded: did not inhibit or potentiate
Aortic Ring contraction Emax (%), maximum efficacy at 10^−5.5M (rat thoracic aorta rings [2]): 8.7%
Effect on hUII hemodynamic profile (anaesthetized rats; 0.1 μmol/kg): no effect
Intrinsic effect on blood pressure (anaesthetized rats; 100 nmol/kg (0.1 μmol/kg) i.v.): No effect
Intrinsic effect on blood pressure (anaesthetized rats; 100 nmol/kg (0.1 μmol/kg) i.v., listed as urocontrin): no detectable effect
Intrinsic effect on blood pressure (anaesthetized rats; 1000 nmol/kg (1 μmol/kg) i.v.): hypotensive effect comparable with that of hUII
Intrinsic effect on blood pressure (anaesthetized rats; 1000 nmol/kg (1 μmol/kg) i.v., listed as urocontrin): hypotension comparable with that of hUII
Effect on hUII hypotensive action (anaesthetized rats; [4]): significantly reduced
Effect on hUII pressor effect (anaesthetized rats; [4]): keeping intact
Effect on hUII pressor effect (anaesthetized rats; 1000 nmol/kg bolus, 30 min before hUII 10 nmol/kg, listed as urocontrin): preserving
Effect on biphasic response induced by URP (anaesthetized rats; 1000 nmol/kg, URP 10 nmol/kg): no effect
Response to a second hUII injection after pre-treatment (anaesthetized rats; [Bip^4]URP 1000 nmol/kg 30 min before two hUII doses (10 nmol/kg, 30 min interval)): complete absence of a response
Effect on URP-induced contraction (in words) (rat thoracic aorta rings [3]): but not URP
Effect on hUII-induced contraction (in words) (rat thoracic aorta rings [3]): suppressed the maximum contractile response to hUII in a concentration-dependent manner
pKb (non-competitive antagonism of hUII) (rat thoracic aorta rings [3]; 1 μM [Bip^4]URP, method of Gaddum): 7.15
Slope of double reciprocal plot of equiactive hUII concentrations (method of Gaddum) (rat thoracic aorta rings [3]; absence and presence of 1 μM [Bip^4]URP): 15.00±0.62 and 15.0±0.6
